Results reported in patent US20230150951A1, “2,5- OR 2,6-DISUBSTITUTED HYDROQUINONE DERIVATIVES WITH AT LEAST ONE CARBOXY, SULFO OR AMIDO GROUP USEFUL AS MEDICAMENTS” (OM PHARMA SA, priority 2020, published 2023).

Key:
Format in all cases: cell-based
FGF-1 = target: T1, FGF-1 (Homo sapiens, UniProt P05230); experiment: FGF-1 induced sprouting of HUVEC, spheroid-based cellular angiogenesis assay; conditions: FGF-1 25 ng/mL preincubated with compound, 24 h
T1 construct: purchased Peprotech 100-17A
T1 sequence (P05230 whole entry): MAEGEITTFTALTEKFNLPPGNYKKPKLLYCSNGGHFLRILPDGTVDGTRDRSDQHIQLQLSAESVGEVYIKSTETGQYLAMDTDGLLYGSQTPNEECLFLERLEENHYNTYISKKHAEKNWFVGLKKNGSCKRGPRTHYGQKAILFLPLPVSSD
Method in brief: (§1)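 Compound (final 100 down to 1.56×10^−6 M) was mixed with growth factor (final 25 ng/mL) for 30 min at 37°C, then added onto collagen-embedded 400-cell HUVEC spheroids.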

FGF-2 = target: T2, FGF-2 (Homo sapiens, UniProt P09038); experiment: FGF-2 induced sprouting of HUVEC, spheroid-based cellular angiogenesis assay; conditions: FGF-2 25 ng/mL preincubated with compound, 24 h
T2 construct: purchased Peprotech 100-18C
T2 sequence (P09038 134-288): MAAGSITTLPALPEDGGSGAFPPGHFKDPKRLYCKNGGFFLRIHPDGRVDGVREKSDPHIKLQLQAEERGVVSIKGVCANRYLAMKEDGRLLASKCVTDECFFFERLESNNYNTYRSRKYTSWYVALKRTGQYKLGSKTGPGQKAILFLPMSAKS
Method in brief: as §1

VEGF-A = target: T3, VEGF-A (Homo sapiens, UniProt P15692); experiment: VEGF-A induced sprouting of HUVEC, spheroid-based cellular angiogenesis assay; conditions: VEGF-A 25 ng/mL preincubated with compound, 24 h, read-out: VEGF-A1 IC50
T3 construct: purchased ProQinase GmbH
T3 sequence (P15692 27-191 isoform P15692-4): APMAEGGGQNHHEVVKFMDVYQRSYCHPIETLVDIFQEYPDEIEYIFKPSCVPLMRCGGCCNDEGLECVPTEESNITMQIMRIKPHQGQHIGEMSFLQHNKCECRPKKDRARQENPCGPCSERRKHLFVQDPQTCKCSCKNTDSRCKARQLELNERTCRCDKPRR
Experimental: Aim of this in vitro method is to assess compounds effects on FGF-2, FGF-1, or VEGF-A induced sprouting of human umbilical vein endothelial cells (HUVEC) in the spheroid-based cellular angiogenesis assay. Before adding the growth factors to the cells, they were preincubated with the compound. Sunitinib was tested as a control (without preincubation).
IC50 values determined for the tested compounds are expressed in microM [μM] and the values for the inhibition of FGF-1, FGF2 and VEGF-A induced growth (sprouting) are listed after each compound in the examples after chemical characterization.
Sprouting test was performed on the compounds dissolved in DMSO to reach 100-fold concentrated stock solutions and dissolved in culture media. Sunitinib as reference compound was provided by ProQinase GmbH. Growth factors were purchased from rhFGF-basic (FGF-2), Peprotech, New Jersey, USA, #100-18C, Lot #0415571; rhFGF-acidic (FGF-1), Peprotech, New Jersey, USA, #100-17A, Lot #031207; hVEGF-A165 (ProQinase GmbH, Freiburg, Germany; 05.02.2010) were used for stimulation of HUVEC cells growth.
Test system: Endothelial cells from human umbilical vein (HUVEC) from pooled donors were stored frozen with 70% medium, 20% FCS, 10% DMSO at about 1×10^6 cells/ampoule. HUVEC cells, primary human umbilical vein endothelial cells (PromoCell, Heidelberg, Germany), were used after passage 3 to 4. Morphology of the cells are adherent, cobblestone-like growing as monolayer and were cultured in endothelial cell growth and basal medium (ECGM/ECBM, PromoCell). The subculture was split 1:3; every 3-5 days, seed out at ca. 1×10^4 cells/cm^2 and incubated at 37° C. with 5% CO2 with a doubling time 24-48 hours
Dilution of test compounds: 100× concentrated solutions (concerning to the final assay concentrations) of each test compound were prepared with the appropriate solvent (in DMSO or in water). These 100×compound solutions were further diluted in endothelial cell growth and basal medium (ECBM) 1:7.5 to get a 13.33× concentrated solution. 75 μl of the 13.33×solution was subsequently mixed with 25 μl of 40× concentrated stimulus (solved in ECBM), resulting in a 10×concentrated stimulus/compound mixture. This mixture (100 μl) was incubated for 30 min at 37° C. and then added to 900 μl gel, containing the HUVEC spheroids (resulting in the final assay concentration).
Test method: the experiments were pursued in modification of the originally published protocol (Korff and Augustin: J Cell Sci 112: 3249-58, 1999). In brief, spheroids were prepared as described (Korff and Augustin: J Cell Biol 143: 1341-52, 1998) by pipetting 400 HUVEC in a hanging drop on plastic dishes to allow overnight spheroid aggregation. 50 HUVEC spheroids were then seeded in 0.9 ml of a collagen gel and pipetted into individual wells of a 24 well plate to allow polymerization. The test compounds were preincubated with the growth factors (FGF-1, FGF-2 or VEGF-A final concentration 25 ng/mL) in a 10-fold concentrated solution and subsequently, 100 μl of this solution was added on top of the polymerized gel. All compounds were diluted in solvent (DMSO or water) as 100×stocks first (which means 100×stocks of each final assay concentration were prepared in solvent). Subsequently, these stocks were further diluted in medium (resulting in the 13.33×stocks of each final assay concentration) with final concentrations tested: 100, 50, 25, 12.5, 6.25, 3.13 and 1.56×10^−6 M). Plates were incubated at 37° C. for 24 hours and fixed by adding 4% PFA (Roth, Karlsruhe, Germany).
Quantification of growth factor inhibition: sprouting intensity of HUVEC spheroids treated with the growth factor and the inhibitors were quantitated by an image analysis system determining the cumulative sprout length per spheroid (CSL).

VEGFR-2 = target: T4, VEGFR-2 (Homo sapiens, UniProt P35968); experiment: VEGF-165 induced phosphorylation of VEGF-Receptor on HUVEC; conditions: HUVEC preincubated 60 min, VEGF165 25 ng/mL 2 min; read-out: VEGFR-Phosphorylation inhibition IC50
T4 construct: endogenous in cells; host or cells: primary HUVEC
T4 sequence (P35968 20-1356): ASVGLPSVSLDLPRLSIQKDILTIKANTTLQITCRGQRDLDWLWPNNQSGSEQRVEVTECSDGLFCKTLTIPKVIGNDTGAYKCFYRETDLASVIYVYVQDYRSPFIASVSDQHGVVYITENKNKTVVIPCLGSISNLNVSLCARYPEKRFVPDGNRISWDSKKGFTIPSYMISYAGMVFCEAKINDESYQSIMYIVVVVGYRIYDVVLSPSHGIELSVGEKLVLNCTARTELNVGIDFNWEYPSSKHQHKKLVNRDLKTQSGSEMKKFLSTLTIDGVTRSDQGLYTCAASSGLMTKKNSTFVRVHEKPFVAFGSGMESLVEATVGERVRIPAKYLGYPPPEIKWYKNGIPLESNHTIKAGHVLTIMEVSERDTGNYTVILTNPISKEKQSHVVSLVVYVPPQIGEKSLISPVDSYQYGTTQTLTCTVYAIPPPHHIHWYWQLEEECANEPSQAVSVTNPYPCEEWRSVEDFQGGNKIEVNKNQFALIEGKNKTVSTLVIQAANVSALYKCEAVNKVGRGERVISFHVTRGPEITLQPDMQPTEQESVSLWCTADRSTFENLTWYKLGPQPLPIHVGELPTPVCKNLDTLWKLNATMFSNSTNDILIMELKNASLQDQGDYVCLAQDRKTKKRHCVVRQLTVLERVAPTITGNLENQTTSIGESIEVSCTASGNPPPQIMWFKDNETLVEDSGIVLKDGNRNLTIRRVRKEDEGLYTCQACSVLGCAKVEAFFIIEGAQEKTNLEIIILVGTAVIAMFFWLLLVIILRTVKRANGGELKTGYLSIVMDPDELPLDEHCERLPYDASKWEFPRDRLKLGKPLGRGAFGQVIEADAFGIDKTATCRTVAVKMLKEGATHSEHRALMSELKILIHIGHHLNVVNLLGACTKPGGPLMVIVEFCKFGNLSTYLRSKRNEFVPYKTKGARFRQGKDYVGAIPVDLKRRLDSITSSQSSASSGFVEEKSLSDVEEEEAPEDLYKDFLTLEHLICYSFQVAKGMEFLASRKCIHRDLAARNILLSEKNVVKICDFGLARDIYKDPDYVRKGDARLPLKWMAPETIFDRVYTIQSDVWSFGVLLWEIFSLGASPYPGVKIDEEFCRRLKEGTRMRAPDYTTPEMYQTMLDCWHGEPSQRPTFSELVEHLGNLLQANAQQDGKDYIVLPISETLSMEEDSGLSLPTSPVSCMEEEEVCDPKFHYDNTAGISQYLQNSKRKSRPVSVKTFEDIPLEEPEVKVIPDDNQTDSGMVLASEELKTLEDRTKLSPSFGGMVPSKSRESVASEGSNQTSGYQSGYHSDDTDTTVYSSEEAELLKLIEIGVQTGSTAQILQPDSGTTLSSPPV

Human neutrophils [1] = experiment: Inhibition of ROS production in human neutrophils (isoluminol chemiluminescence); conditions: Homo sapiens, Neutrophil, fMLP+TNF-α stimulated PMN
Method in brief: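 Extracellular ROS measured as isoluminol-amplified chemiluminescence following 1 μM fMLP activation on fibrinogen-coated plates, readings every 25 sec over 250 sec minus HBSS/isoluminol background. Beforehand, cells were treated with compounds at 0.1, 0.3, 1, 3 or 10 μM (30 min, 37° C) and TNF-α (20 ng/ml, 10 min); duplicate or triplicate.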

Human neutrophils [2] = experiment: Neutrophil adhesion under static conditions; conditions: fMLP-stimulated adhesion to fibrinogen; method: 40 μM and 80 μM, concentration of the value not stated
Method in brief: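 Donor buffy-coat neutrophils (3×10^6/ml, PBS with Ca/Mg, 10% FCS, pH 7.2) preincubated 30 min at 37° C with 40 μM or 80 μM compound, then stimulated 1 min at 37° C with 1 nM fMLP on fibrinogen-coated glass. Adherent cells fixed and counted by computer; mean ± SD, unpaired t-test.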

| SMILES | IC50 (FGF-1) | IC50 (FGF-2) | IC50 (VEGF-A) | IC50 (VEGFR-2) | IC50 (Human neutrophils [1]) | inhibition at 0.3 µM (Human neutrophils [1]) | Neutrophil adhesion inhibition (Human neutrophils [2]) |
| --- | --- | --- | --- | --- | --- | --- | --- |
| O=C(O)c1ccc(C(=O)O)c(NC(=O)c2cc(O)c(C(=O)O)cc2O)c1 [Ia-012a, 2-(4-carboxy-2,5-dihydroxybenzamido)terephthalic acid] | 38 µM | 36 µM | 30 µM | ≥ 100 µM | 1.85 µM | 59.5% | 28.5% |
| O=C(O)c1cc(O)c(C(=O)Nc2ccc(C(=O)O)c(C(=O)O)c2)cc1O [Ia-014a, 4-(4-carboxy-2,5-dihydroxybenzamido)phthalic acid] | 20 µM | 20 µM | 88 µM | ≥ 100 µM | 1 µM | 61.3% | 9.667% |
| O=C(O)Cc1ccccc1NC(=O)c1cc(O)c(C(=O)O)cc1O [Ia-034a, 4-(2-(carboxymethyl)phenylaminocarbonyl)-2,5-dihydroxybenzoic acid] | 79 µM | 14 µM | 102 µM | ≥ 100 µM | 2.28 µM | 49.1% | 15% |
| O=C(O)c1cc(O)c(C(=O)NCc2ccccc2C(=O)O)cc1O [Ia-053a, 4-(2-Carboxyphenylmethylaminocarbonyl)-2,5-dihydroxybenzoic acid] | ≥ 150 µM | 124 µM | 210 µM | ≥ 100 µM | 2.5 µM | 52.9% | 18.67% |

Second part, led by results:

| IC50 (FGF-1) | IC50 (FGF-2) | IC50 (VEGF-A) | IC50 (VEGFR-2) | IC50 (Human neutrophils [1]) | SMILES | inhibition at 0.3 µM (Human neutrophils [1]) | Neutrophil adhesion inhibition (Human neutrophils [2]) |
| --- | --- | --- | --- | --- | --- | --- | --- |
| 29 µM | 18 µM | 17 µM | ≥ 100 µM | 2.38 µM | O=C(O)c1cc(O)c(C(=O)Nc2c(C(=O)O)cccc2C(=O)O)cc1O [Ia-013a, 2-(4-carboxy-2,5-dihydroxybenzamido)isophthalic acid] | 38.5% | 27.67% |
| 10 µM | 65 µM | 109 µM | 10 µM | 1.1 µM | O=C(O)c1cc(O)c(C(=O)NCCc2ccc(O)c(O)c2)cc1O [Ia-035a-2, 4-(2-(3,4-Dihydroxyphenyl)ethylaminocarbonyl)-2,5-dihydroxybenzoic acid] | 58.8% | 21.5% |
| 34 µM | 207 µM | 198 µM | 10 µM | 0.66 µM | O=C(O)c1cc(O)c(C(=O)NC(Cc2ccc(O)c(O)c2)C(=O)O)cc1O (stereo not shown) [Ia-035a-3, 4-(1-Carboxy-2-(3,4-dihydroxyphenyl)ethylaminocarbonyl)-2,5-dihydroxybenzoic acid] | 79.6% | 22% |
